In series [1] the test system is NCI-H358 cells (KRAS G12C mutant cell line). Put plainly: Inhibition of NCI-H358 cell proliferation (CellTiter-Glo, 72 h). Type of series: cell-based, human. The following applies: Homo sapiens. In short, it runs like this: (§1)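 Cells were seeded overnight at 37 °C, 5% CO2, then exposed to serially diluted compound (DMSO/medium) alongside a solvent control for 72 h. Viability was read by CellTiter-Glo luminescence, and IC50 was derived by nonlinear regression of inhibition rate against concentration.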

For series [2], the system named is Mia PaCa-2 cells (KRAS G12C mutant cell line). The series is described as follows: Inhibition of Mia PaCa-2 cell proliferation (CellTiter-Glo, 72 h). It counts as cell-based, human. The following applies: Homo sapiens. In short, it runs like this:
as §1

The target of a further series is T1, CYP2D6 (Homo sapiens, UniProt P10635).
T1 construct: from tissue; host or cells: human liver microsomes
T1 sequence (P10635 whole entry): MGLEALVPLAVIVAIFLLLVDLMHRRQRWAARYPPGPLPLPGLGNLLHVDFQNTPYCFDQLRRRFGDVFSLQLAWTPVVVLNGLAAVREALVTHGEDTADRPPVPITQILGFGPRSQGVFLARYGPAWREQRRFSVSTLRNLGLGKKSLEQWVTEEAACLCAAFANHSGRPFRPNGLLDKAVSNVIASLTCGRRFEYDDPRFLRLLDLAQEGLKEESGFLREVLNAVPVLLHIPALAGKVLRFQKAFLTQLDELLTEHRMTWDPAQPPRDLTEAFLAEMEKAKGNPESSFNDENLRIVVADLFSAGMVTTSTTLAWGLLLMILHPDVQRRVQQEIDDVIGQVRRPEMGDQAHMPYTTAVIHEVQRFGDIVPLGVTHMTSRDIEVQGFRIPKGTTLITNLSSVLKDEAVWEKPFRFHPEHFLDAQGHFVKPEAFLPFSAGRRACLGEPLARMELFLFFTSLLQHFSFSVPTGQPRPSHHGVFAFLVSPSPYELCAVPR
Put plainly: CYP enzyme single point inhibition, human liver microsomes, 2D6. Type of series: in vitro ADME. The following applies: single point method. The method, then:
Using human liver microsomal incubation system, the inhibition of CYP450 enzyme subtypes by compounds was rapidly predicted by single point method.
2.5 mM NADPH: 100 mM phosphate buffer was added to 4.165 mg of NADPH (reduced nicotinamide adenine dinucleotide phosphate) to 2 mL. 0.25 mg/mL microsome: 4 mL of 100 mM phosphate buffer was added to 50 μL of 20 mg/mL microsome and mixed well.
The embodiment compound to be tested was weighed and diluted to 10 mM with DMSO and then diluted to 100 μM with 100 mM phosphate buffer.
• 1. In a 96-well plate, 40 μL of liver microsomes, 10 μL of substrate, 10 μL of compound to be tested were pre-incubated for 3 min. • 2. 40 μL of NADPH was added. • 3. 300 μL of acetonitrile termination solution containing internal standard was added at 20 min. • 4. Centrifugal injection.
Background: Liver microsomes are a subcellular fraction often used to study metabolism.

The nature of series [3]: Plasma protein binding rate, mouse plasma. The following applies: 37° C. It counts as in vitro ADME. The method, then:
(§2) The embodiment compound was prepared into a 1 mM solution A with DMSO.
(§3) Solution A was added to the plasma solution and prepared into a 5 μM solution B.
(§4) • 1) 200 μL of solution B was added into the membrane. • 2) 350 μL of PBS was added to the outside of the membrane. • 3) Incubating in a 37° C. water bath for 6 hours. • 4) The samples were processed for dilution and detected by mass spectrometry.
(§5) • Instrument: Shimadzu LC-20 AD; • Chromatographic column: phenomenex Gemiu® C18 (50*4.6 mm, 5 μM particle size); • Mobile phase: A: Acetonitrile, B: 0.1% formic acid solution 0-0.5 min: 5% A→90% A, 2.0-2.1 min: 90% A→5% A; flow rate: 0.8 mL/min; running time: 5.0 min; injection volume: 5 μL.
(§6) • Instrument: API4000 Liquid Chromatography-Mass Spectrometry, AB, USA; • the ion source was electrospray ionization source (ESI); • the temperature of dry gas (N2) was 500° C.; • electrospray voltage was 5500V; • the detection method was positive ion detection; • the scanning mode was selective response monitoring (MRM); the scanning time was 0.1 s.

The nature of series [4]: Plasma protein binding rate, dog plasma. Type of series: in vitro ADME. The following applies: 37° C. The procedure:
as §2, §3, §4, §5, §6

Another series in a line: in vivo. The following applies: male, Balb/c, mouse, po, 10 mg/kg.

Protocol for in vivo: 5 g of Hydroxyethyl cellulose (HEC, CMC-Na, viscosity: 800-1200 Cps) was weighed, dissolved in 1000 mL of purified water, and 10 g of Tween 80 was added. The mixture was mixed well to form a clear solution.
The embodiment compounds were weighed and added into 4-mL glass bottles, respectively, 2.4 mL of the solution was added, and ultrasound was performed for 10 minutes to obtain a colorless clear solution with a concentration of 1 mg/mL.
Balb/C mice, males; PO, after overnight fasting, respectively, at a dose of 10 mg/kg, administered in a volume of 10 mL/kg.
Blood samples were collected before administration and 0.083 h, 0.25 h, 0.5 h, 1 h, 2 h, 4 h, 6 h and 8 h after administration, the blood was placed in EDTA-2K tube, centrifuged at 4° C. 6000 rpm for 6 min to separate plasma, and stored at −80° C.; food was consumed 4 hours after drug administration.

Turning to `C=CC(=O)N1C[C@H](C)N(c2nc(=O)n(-c3c(SC)ccnc3C(C)C)c3nc(-c4c(O)cccc4F)c(F)cc23)C[C@H]1C` (single isomer, unassigned) [Embodiment 114-1], in series [1], the IC50 turned out to be 35 nM. The IC50 in series [2] amounted to 29 nM. The molecule also returned a concentration for half-maximal inhibition (IC50) against CYP2D6 greater than 100 nM. The molecule further showed an unbound share (fraction unbound) at 6 h, 5 μM in series [3] of 0.116. The same molecule gave a fraction unbound at 6 h, 5 μM in series [4] of 0.174. In “in vivo”, the AUC(0-inf) is 1370 ng·h/mL, the Cmax worked out at 1820 ng/mL, the MRT is 42 min and the Tmax was 15 min. In “in vivo”, the half-life is 36 min.

As to `C=CC(=O)N1C[C@H](C)N(c2nc(=O)n(-c3c(SC)ccnc3C(C)C)c3nc(-c4c(N)ccc(Cl)c4F)c(Cl)cc23)C[C@H]1C` (single isomer, unassigned) [Embodiment 165-1], the 50% inhibitory concentration (IC50) in series [1] amounted to 6.6 nM. Also, in series [2], the concentration for half-maximal inhibition (IC50) was found to be 3.3 nM. The molecule also showed a half-maximal inhibitory concentration (IC50) against CYP2D6 of 21.2 nM. The molecule further gave a fraction unbound at 6 h, 5 μM in series [3] of 0.061. In series [4], the free fraction (fraction unbound) at 6 h, 5 μM was 0.013. Besides, in “in vivo”, the AUC(0-inf) was 347 ng·h/mL, the peak level (Cmax) was 264 ng/mL, the mean residence time MRT turned out to be 90 min and the time to peak (Tmax) was 15 min. This molecule also gave a half-life in “in vivo” of 60 min.

With `C=CC(=O)N1C[C@H](C)N(c2nc(=O)n(-c3c(SC)ccnc3C(C)C)c3nc(-c4c(O)cccc4F)c(Cl)cc23)C[C@H]1C` (single isomer, unassigned) [Embodiment 166-1], the IC50 worked out at 17 nM in series [1] and 11 nM in series [2]. Moreover, the fraction unbound at 6 h, 5 μM was 0.037 in series [3] and 0.075 in series [4].

A word on the IC50: it is the point on the concentration scale where inhibition reaches its midpoint. The term fraction unbound denotes free concentration divided by total concentration. A lower fraction unbound goes with extensive binding. For orientation: AUC(0-inf) means total exposure, with the tail of the curve extrapolated. Read a low AUC(0-inf) as less exposure. Usually Cmax stands for the highest concentration seen after dosing. As a reminder, the MRT is a mean duration of stay, worked out from the concentration-time curve. One may read the Tmax as the time at which the peak concentration occurs. Broadly, the half-life is how long it takes for the measured level to halve. Low readings indicate rapid decline, high ones slow decline.

The record behind these values is patent US12497396B2, “Nitrogen-containing heterocyclic derivatives, method therefor and application therefor as inhibitors of KRAS G12C for the treatment of cancers” (SHANGHAI HANSOH BIOMEDICAL CO., LTD., priority 2019, dated 2025).
